Data: patent publication US9097673B2, “Processes and kits for determining multi-drug resistance of cells” (ENZO LIFE SCIENCES, INC., priority 2010, dated 2015)
Where “and” joins values, the source holds several entries; their conditions need not be identical. Equal values may be shown once. Read-outs that look alike come from different tables or passages of the source.

How the values were obtained:
[1] = system: U-2 OS cells; experiment: Multiplexed MDR detection by flow cytometry (dye uptake, with PI); type: cell-based, human; details: for F8 + PI, MAF: Fluo-8 AM + PI; for F8, MAF: Fluo-8 AM probe alone; for R4 + PI compens, MAF / R4 + PI, MAF: Rhod-4 AM + PI; for R4 + PI compens, MAF: compensated; for R4 + PI, MAF: uncompensated; for R4, MAF: Rhod-4 AM probe alone;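 for all read-outs here: MAF computed as 100 × (MFI with inhibitor − MFI without) / MFI with inhibitor, after 5 min inhibitor pre-incubation then 30 min dye loading at 37 °C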
[2] = system: U-2 OS cells expressing GFP; experiment: as above; type: cell-based, human; details: U-2 OS GFP; for R4 + PI compens, MAF / R4 + PI, MAF: Rhod-4 AM + PI; for R4 + PI compens, MAF: compensated; for R4 + PI, MAF: uncompensated; for R4, MAF: Rhod-4 AM probe alone
[3] = system: CHO K1 cell line; experiment: Dye uptake flow cytometry MDR assay; type: cell-based, hamster;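 note: flow cytometry of dye-loaded cells, Kolmogorov-Smirnov D value (0 to 1.0) comparing fluorescence with versus without inhibitor, made negative when the uninhibited control was brighter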
[4] = system: A549 cell line; experiment: Dye uptake flow cytometry MDR assay; type: cell-based, human
[5] = system: HeLa cell line; experiment: Dye uptake flow cytometry MDR assay; type: cell-based, human
[6] = CHO K1, Fluo-8 AM + propidium iodide, uncompensated data
[7] = CHO K1, Fluo-8 AM probe alone, uncompensated data
[8] = CHO K1, Rhod-4 AM + propidium iodide, compensated data
[9] = CHO K1, Rhod-4 AM + propidium iodide, uncompensated data
[10] = CHO K1, Rhod-4 AM probe alone, uncompensated data
[11] = A549, dye uptake, average of three representative experiments (Table 6)
[12] = HeLa, dye uptake, average of three representative experiments (Table 6)
[13] = CHO K1, dual probes Rhod-4 AM (FL2) + DiOC2(3) (FL1)
[14] = CHO K1, dye uptake, average of three representative experiments (Table 6)
[15] = CHO K1, triple probes DiOC2(3) (FL1) + Rhod-4 AM (FL2) + Pheophorbide A (FL3)
[16] = A549, dye uptake, average of three independent experiments (Table 10)
[17] = CHO K1, dye uptake, average of three independent experiments (Table 10)
[18] = CHO K1, dual probes Fluo-8 AM (FL1) + Pheophorbide A (FL3)
[19] = CHO K1, dual probes Rhod-4 AM (FL2) + Pheophorbide A (FL3)
[20] = CHO K1, triple probes CMFDA (FL1) + Rhod-4 AM (FL2) + Pheophorbide A (FL3)
[21] = CHO K1, dual probes Rhod-4 AM (FL2) + CMFDA (FL1)

SMILES: COc1ccc(CCN(C)CCCC(C#N)(c2ccc(OC)c(OC)c2)C(C)C)cc1OC (stereo not shown) [Verapamil, verapamil]
- F8 + PI, MAF [1]: 33.0
- F8, MAF [1]: 63.4
- R4 + PI compens, MAF [1]: 54.1
- R4 + PI, MAF [1]: 35.8
- R4, MAF [1]: 42.5
- R4 + PI compens, MAF [2]: 38.0
- R4 + PI, MAF [2]: 41.3
- R4, MAF [2]: 30.4
- F8 + PI, D-values [3]: 0.94
- Fluo-8 ™, D [3]: 0.92
- R4 + PI, D-values [3]: 0.96 and 0.95
- Rhod4 ™ (D-values) [3]: 0.94

SMILES: CN(C)C(=O)CCSC(SCCC(=O)O)c1cccc(/C=C/c2ccc3ccc(Cl)cc3n2)c1 (stereo not shown) [MK-571]
- F8 + PI, MAF [1]: 52.9
- F8, MAF [1]: 65.4
- R4 + PI compens, MAF [1]: 54.5
- R4 + PI, MAF [1]: 49.7
- R4, MAF [1]: 62.8
- R4 + PI compens, MAF [2]: 43.3
- R4 + PI, MAF [2]: 51.9
- R4, MAF [2]: 49.6
- F8 + PI, D-values [3, 6]: 0.92
- Fluo-8 ™, D [3, 7]: 0.89
- R4 + PI, D-values [3, 8]: 0.94
- R4 + PI, D-values [3, 9]: 0.95
- Rhod4 ™ (D-values) [3, 10]: .94

SMILES: CCN1C(=CC=Cc2oc3ccccc3[n+]2CC)Oc2ccccc21.[I-] [DiOC2(3), 3,3′-diethyloxacarbocyanine iodide]
- D-value, Fumitremorgan C [4]: 0.03
- D-value, Probenecid [4, 11]: 0
- D-value, Verapamil [4, 11]: 0.07
- D-value, Fumitremorgan C [5]: 0.07
- D-value, Probenecid [5, 12]: 0.06
- D-value, Verapamil [5, 12]: 0
- D-value, Fumitremorgan C [3]: 0
- D-values Post Inhibitor Treatment (compared to uninhibited cells), CsA [3, 13]: 0.94
- D-values Post Inhibitor Treatment (compared to uninhibited cells), FTC [3, 13]: 0.16
- D-values Post Inhibitor Treatment (compared to uninhibited cells), MK-571 [3, 13]: 0.13
- D-values Post Inhibitor Treatment (compared to uninhibited cells), Verapamil [3, 13]: 0.96
- D-value, Probenecid [3, 14]: 0.01
- D-value, Verapamil [3, 14]: 0.96
- D-values Post Inhibitor Treatment (compared to uninhibited cells), CsA [3, 15]: 0.98
- D-values Post Inhibitor Treatment (compared to uninhibited cells), FTC [3, 15]: 0.11
- D-values Post Inhibitor Treatment (compared to uninhibited cells), MK-571 [3, 15]: 0.13
- D-values Post Inhibitor Treatment (compared to uninhibited cells), Verapamil [3, 15]: 0.98

SMILES: COc1ccc2c3c([nH]c2c1)[C@H](C=C(C)C)N1C(=O)[C@@H]2CCCN2C(=O)[C@@H]1C3 [FTC, fumitremorgin C]
- F8 + PI, MAF [1]: −6.3
- F8, MAF [1]: 5.0
- R4 + PI compens, MAF [1]: 12.6
- R4 + PI, MAF [1]: −9.3
- R4, MAF [1]: 9.9
- R4 + PI compens, MAF [2]: 6.2
- R4 + PI, MAF [2]: 25.7
- R4, MAF [2]: 15.0

SMILES: CCCN(CCC)S(=O)(=O)c1ccc(C(=O)O)cc1 [Probenecid, probenecid]
- F8 + PI, MAF [1]: 23.1
- F8, MAF [1]: 57.5
- R4 + PI compens, MAF [1]: 42.4
- R4 + PI, MAF [1]: 24.0
- R4, MAF [1]: 41.2
- R4 + PI compens, MAF [2]: 38.5
- R4 + PI, MAF [2]: 47.7
- R4, MAF [2]: 34.0

SMILES: COc1cccc2c1C(=O)c1c(O)c3c(c(O)c1C2=O)C[C@@](O)(C(=O)CO)C[C@@H]3O[C@H]1C[C@H](N)[C@H](O)[C@H](C)O1 [Doxorubicin, doxorubicin]
- D-value, Cyclosporine A [4, 16]: 0.14
- D-value, FTC [4, 16]: 0.18
- D-value, MK-571 [4, 16]: 0.24
- D-value, Novobiocin [4, 16]: 0.28
- D-value, Verapamil [4, 16]: 0.06
- D-value, Cyclosporine A [3, 17]: 0.42
- D-value, FTC [3, 17]: 0.22
- D-value, MK-571 [3, 17]: 0.35
- D-value, Novobiocin [3, 17]: 0.32
- D-value, Verapamil [3, 17]: 0.27

SMILES: C=Cc1c(C)c2cc3nc(c4c5[nH]c(cc6nc(cc1[nH]2)C(C)=C6CC)c(C)c5C(=O)[C@@H]4C(=O)OC)[C@@H](CCC(=O)O)[C@@H]3C [Pheophorbide A, pheophorbide A]
- D-value, Fumitremorgan C [4, 11]: 0.35
- D-value, Probenecid [4, 11]: 0.16
- D-value, Verapamil [4, 11]: 0.16
- D-value, Fumitremorgan C [5, 12]: 0
- D-value, Probenecid [5, 12]: 0
- D-value, Verapamil [5, 12]: 0
- D-values Post Inhibitor Treatment (compared to uninhibited cells), CsA [3, 18]: 0.25
- D-values Post Inhibitor Treatment (compared to uninhibited cells), FTC [3, 18]: 0.33
- D-values Post Inhibitor Treatment (compared to uninhibited cells), MK-571 [3, 18]: 0.15
- D-values Post Inhibitor Treatment (compared to uninhibited cells), Verapamil [3, 18]: 0.14
- D-values Post Inhibitor Treatment (compared to uninhibited cells), CsA [3, 19]: 0.25
- D-values Post Inhibitor Treatment (compared to uninhibited cells), FTC [3, 19]: 0.34
- D-values Post Inhibitor Treatment (compared to uninhibited cells), MK-571 [3, 19]: 0.14
- D-values Post Inhibitor Treatment (compared to uninhibited cells), Verapamil [3, 19]: 0.11
- D-value, Fumitremorgan C [3, 14]: 0.25
- D-value, Probenecid [3, 14]: 0.03
- D-value, Verapamil [3, 14]: 0.02
- D-values Post Inhibitor Treatment (compared to uninhibited cells), CsA [3, 20]: 0.20
- D-values Post Inhibitor Treatment (compared to uninhibited cells), FTC [3, 20]: 0.27
- D-values Post Inhibitor Treatment (compared to uninhibited cells), MK-571 [3, 20]: 0.09
- D-values Post Inhibitor Treatment (compared to uninhibited cells), Verapamil [3, 20]: 0.18
- D-values Post Inhibitor Treatment (compared to uninhibited cells), CsA [3, 15]: 0.4
- D-values Post Inhibitor Treatment (compared to uninhibited cells), FTC [3, 15]: 0.41
- D-values Post Inhibitor Treatment (compared to uninhibited cells), MK-571 [3, 15]: 0.13
- D-values Post Inhibitor Treatment (compared to uninhibited cells), Verapamil [3, 15]: 0.17

SMILES: CC(=O)Oc1ccc2c(c1)Oc1cc(OC(C)=O)ccc1C21OC(=O)c2cc(CCl)ccc21 [CMFDA, chloromethylfluorescein diacetate]
- D-value, Fumitremorgan C [4, 11]: 0.21
- D-value, Probenecid [4, 11]: 0.29
- D-value, Verapamil [4, 11]: 0.04
- D-value, Fumitremorgan C [5, 12]: 0.12
- D-value, Probenecid [5, 12]: 0.03
- D-value, Verapamil [5, 12]: 0
- D-values Post Inhibitor Treatment (compared to uninhibited cells), CsA [3, 21]: 0.49
- D-values Post Inhibitor Treatment (compared to uninhibited cells), FTC [3, 21]: 0.06
- D-values Post Inhibitor Treatment (compared to uninhibited cells), MK-571 [3, 21]: 0.91
- D-values Post Inhibitor Treatment (compared to uninhibited cells), Verapamil [3, 21]: 0.1
- D-value, Fumitremorgan C [3, 14]: 0.09
- D-value, Probenecid [3, 14]: 0.7
- D-value, Verapamil [3, 14]: 0.19
- D-values Post Inhibitor Treatment (compared to uninhibited cells), CsA [3, 20]: 0.47
- D-values Post Inhibitor Treatment (compared to uninhibited cells), FTC [3, 20]: 0.14
- D-values Post Inhibitor Treatment (compared to uninhibited cells), MK-571 [3, 20]: 0.89
- D-values Post Inhibitor Treatment (compared to uninhibited cells), Verapamil [3, 20]: 0.10

SMILES: CO[C@@H]1[C@@H](OC(N)=O)[C@@H](O)[C@H](Oc2ccc3c(O)c(NC(=O)c4ccc(O)c(CC=C(C)C)c4)c(=O)oc3c2C)OC1(C)C [Novobiocin, novobiocin]
- F8 + PI, MAF [1]: 12.3
- F8, MAF [1]: 17.9
- R4 + PI compens, MAF [1]: 15.1
- R4 + PI, MAF [1]: 10.7
- R4, MAF [1]: 18.7
- R4 + PI compens, MAF [2]: 2.8
- R4 + PI, MAF [2]: 27.9
- R4, MAF [2]: 17.9
- F8 + PI, D-values [3, 6]: 0.61
- Fluo-8 ™, D [3, 7]: 0.54
- R4 + PI, D-values [3, 8]: 0.66
- R4 + PI, D-values [3, 9]: 0.7
- Rhod4 ™ (D-values) [3, 10]: .64

SMILES: O=C1c2c(O)ccc(O)c2C(=O)c2c(NCCNCCO)ccc(NCCNCCO)c21 [Mitoxantrone, mitoxantrone]
- D-value, Cyclosporine A [4, 16]: 0.27
- D-value, FTC [4, 16]: 0.28
- D-value, MK-571 [4, 16]: 0.37
- D-value, Novobiocin [4, 16]: 0.28
- D-value, Verapamil [4, 16]: 0.12
- D-value, Cyclosporine A [3, 17]: 0.34
- D-value, FTC [3, 17]: 0.21
- D-value, MK-571 [3, 17]: 0.18
- D-value, Novobiocin [3, 17]: 0.22
- D-value, Verapamil [3, 17]: 0.42
